For orientation: IC50 means the concentration that inhibits the measured activity by half. High values mean lower potency, low ones higher potency.

The target of one assay is T1, CDK6/CyclinD1 (Homo sapiens, UniProt Q00534).
T1 construct: purchased Carna 04-114
In words: In vitro cell-free CDK6/CyclinD1 kinase activity assay (TR-FRET). Format: biochemical. Conditions: ATP at Km. The method in brief:
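TR-FRET readout: reaction stopped with EDTA-containing detection buffer holding peptide antibody and Sa-XL665, 1 h at room temperature, then 665/615 nm emission ratio (excitation 330 nm) taken as activity. 8-10 compound concentrations from DMSO stocks at 200× working concentration; IC50 fitted versus no-inhibitor and no-enzyme controls.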
On the technique in general: Time-resolved FRET reads energy transfer from a long-lived donor to a nearby acceptor.

A further assay concerns MCF-7 cells. In words: Cell viability assay, MCF-7 cells (CellTiter-Glo, 168 h). It counts as cell-based. Conditions: Homo sapiens, MCF7. In a few lines: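 MCF-7 cells (about 3,000/well) were incubated with compound at 8 concentrations for 168 h at 37 °C, 5% CO2. Viability was read by CellTiter-Glo luminescence, and IC50 intervals were derived from survival rates.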
For orientation: In ATP-based viability assays light output follows the ATP content of the culture.

Each structure is given as a SMILES string.

T1 sequence (Q00534 whole entry): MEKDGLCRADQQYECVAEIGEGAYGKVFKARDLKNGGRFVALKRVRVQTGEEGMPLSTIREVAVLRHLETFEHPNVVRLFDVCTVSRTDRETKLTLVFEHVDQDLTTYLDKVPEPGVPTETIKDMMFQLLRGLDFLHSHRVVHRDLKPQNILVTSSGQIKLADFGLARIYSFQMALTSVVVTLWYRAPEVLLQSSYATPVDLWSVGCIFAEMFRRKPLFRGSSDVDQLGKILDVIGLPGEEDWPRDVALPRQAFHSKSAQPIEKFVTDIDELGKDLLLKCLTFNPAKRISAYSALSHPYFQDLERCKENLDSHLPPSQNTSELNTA
T1 sequence (P24385 whole entry partner): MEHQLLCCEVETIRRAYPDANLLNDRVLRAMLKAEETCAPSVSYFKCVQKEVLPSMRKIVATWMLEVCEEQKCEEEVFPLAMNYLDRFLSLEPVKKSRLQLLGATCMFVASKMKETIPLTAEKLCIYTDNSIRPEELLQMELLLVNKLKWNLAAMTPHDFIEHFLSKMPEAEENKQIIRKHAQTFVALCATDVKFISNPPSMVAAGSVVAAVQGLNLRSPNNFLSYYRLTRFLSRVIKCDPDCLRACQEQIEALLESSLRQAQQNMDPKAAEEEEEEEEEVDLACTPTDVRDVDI

As for `CN(C)C(=O)c1cc2cnc(Nc3ccc(N4CCNCC4)cn3)nn2c1-c1ccncc1` [Example 58], the IC50 was less than 100 nM against CDK6/CyclinD1 and 2500 to 10000 nM in the assay with MCF-7 cells.

`N#Cc1cc2cnc(Nc3ccc(N4CCNCC4)cc3)nn2c1-c1ccc2ccccc2c1` [Example 14]: the results for the IC50 on CDK6/CyclinD1 and with MCF-7 cells were less than 100 nM and less than 500 nM, respectively.

On to `COCCOc1ccc(-c2c(C(=O)N(C)C)cc3cnc(Nc4ccc(N5CCNCC5)cn4)nn23)cc1` [Example 57], for which the IC50 at CDK6/CyclinD1 is less than 100 nM; with MCF-7 cells it was 500 to 2500 nM.

Take `CN(C)C(=O)c1cc2cnc(Nc3ccc(N4CCNCC4)cn3)nn2c1C1=CCOCC1` [Example 107]: the IC50 at CDK6/CyclinD1 was less than 100 nM; in the assay on MCF-7 cells it was less than 500 nM.

As to `Cn1cc(-c2cc3cnc(Nc4ccc(N5CCC6(CCNCC6)CC5)cn4)nn3c2C2=CCCC2)cn1` [Example 93], the IC50 on CDK6/CyclinD1 is less than 100 nM; with MCF-7 cells, less than 500 nM.

With `CN(C)C(=O)c1cc2cnc(Nc3ccc(N4CC5(CCNC5)C4)cn3)nn2c1-c1ccncc1` [Example 69], the half-inhibitory concentration (IC50) on CDK6/CyclinD1 was less than 100 nM; in the assay on MCF-7 cells it was 2500 to 10000 nM.

On to `CC(C)n1cc(-c2cc3cnc(Nc4ccc(N5CCNCC5)cn4)nn3c2C2=CCCC2)cn1` [Example 87], for which the IC50 on CDK6/CyclinD1 is 100 to 1000 nM; in the assay on MCF-7 cells, less than 500 nM.

On to `[2H]C([2H])([2H])N1CCN(c2ccc(Nc3ncc4cc(C(=O)N(C([2H])([2H])[2H])C([2H])([2H])[2H])c(-c5ccc(OC)cc5)n4n3)nc2)CC1` [Example 124], for which the results for the half-maximal inhibitory concentration (IC50) against CDK6/CyclinD1 and in the assay on MCF-7 cells were less than 100 nM and less than 500 nM, respectively.

In the case of `N#Cc1cc2cnc(Nc3ccc(N4CCNCC4)cc3)nn2c1-c1ccccc1` [Example 3], the half-inhibitory concentration (IC50) on CDK6/CyclinD1 is less than 100 nM; with MCF-7 cells, less than 500 nM.

Take `[2H]C([2H])([2H])N(C(=O)c1cc2cnc(Nc3ccc(N4CCN(C([2H])([2H])C([2H])([2H])[2H])CC4)cn3)nn2c1C1=CCCC1)C([2H])([2H])[2H]` [Example 115]: the IC50 on CDK6/CyclinD1 was less than 100 nM; with MCF-7 cells it was less than 500 nM.

`C1=C(c2c(-c3cccs3)cc3cnc(Nc4ccc(N5CCNCC5)cn4)nn23)CCC1` [Example 75]: the IC50 against CDK6/CyclinD1 is less than 100 nM; in the assay with MCF-7 cells, 500 to 2500 nM.

Take `CN(C)C(=O)c1cc2cnc(Nc3ccc(N4CC5(CCNC5)C4)cn3)nn2c1-c1ccc(Cl)cc1` [Example 46]: the IC50 at CDK6/CyclinD1 was less than 100 nM; in the assay on MCF-7 cells it was less than 500 nM.

Regarding `CN(C)C(=O)c1cc2cnc(Nc3ccc(N4CCNCC4)cn3)nn2c1-c1ccc(O)cc1` [Example 60], the values for the IC50 on CDK6/CyclinD1 and with MCF-7 cells were less than 100 nM and 2500 to 10000 nM, respectively.

For `C1=C(c2c(-c3cncnc3)cc3cnc(Nc4ccc(N5CCNCC5)cn4)nn23)CCC1` [Example 84], the IC50 on CDK6/CyclinD1 is less than 100 nM; in the assay on MCF-7 cells, less than 500 nM.

On to `CN(C)C(=O)c1cc2cnc(Nc3ccc(N4CC5(CCNC5)C4)cn3)nn2c1C1=CCCC1` [Example 39], for which the IC50 was less than 100 nM against CDK6/CyclinD1 and less than 500 nM with MCF-7 cells.

As to `[2H]C([2H])([2H])N(C(=O)c1cc2cnc(Nc3ccc(N4CCNCC4)cn3)nn2c1C1=CCOCC1)C([2H])([2H])[2H]` [Example 122], the IC50 at CDK6/CyclinD1 was less than 100 nM; in the assay with MCF-7 cells it was less than 500 nM.

On to `CP(C)(=O)c1ccc(Nc2ncc3cc(C#N)c(Br)n3n2)cc1` [Reference Example 128, reference compound], for which the figures for the IC50 at CDK6/CyclinD1 and in the assay on MCF-7 cells were 1000 to 3000 nM and more than 10000 nM, respectively.

As to `CN(C)C(=O)c1cc2cnc(Nc3ccc(N4CCC5(CCNCC5)CC4)cn3)nn2c1C1=CCCC1` [Example 33], the IC50 is less than 100 nM at CDK6/CyclinD1 and less than 500 nM with MCF-7 cells.

Regarding `Cc1noc(C)c1-c1cc2cnc(Nc3ccc(N4CCNCC4)cn3)nn2c1C1=CCCC1` [Example 21], the IC50 at CDK6/CyclinD1 lay within 100 to 1000 nM; in the assay on MCF-7 cells, 500 to 2500 nM.

As for `[2H]C([2H])([2H])C([2H])([2H])N1CCN(c2ccc(Nc3ncc4cc(C(=O)N(C)C)c(C5=CCCC5)n4n3)nc2)CC1` [Example 104], the values for the IC50 on CDK6/CyclinD1 and with MCF-7 cells were less than 100 nM and less than 500 nM, respectively.

Take `[2H]C([2H])([2H])N1CCN(c2ccc(Nc3ncc4cc(C(=O)N(C([2H])([2H])[2H])C([2H])([2H])[2H])c(-c5ccc(F)cc5)n4n3)nc2)CC1` [Example 125]: the IC50 on CDK6/CyclinD1 is less than 100 nM; with MCF-7 cells, less than 500 nM.
